According to US20050118641A1, “Design Technique for Use in Engineering of Deamidation Rates of Peptides, Proteins, Hormones, and Peptide-Like, Protein-Like and Hormone-Like Molecules” (priority 2003, published 2005):

Key:
Format in all cases: physicochemical
[1] = Deamidation of Gln pentapeptides GlyXxxGlnYyyGly (medians over Xxx); conditions: Gln versus Asn peptide
Description: (§1) Median values for carboxyl side residues of Asn and Gln were used in these derivations. The measurements for Asn are the most reliable and are used for these derivations. […] The half-time of hydrolysis was assumed to be 8010 days, but may be faster or slower. Regardless of the derivation based on Asn, calculations of Gln based on these values are found to approximately agree with the currently available data.
(§2) The natural log of the median hydrolysis-corrected rate constants times 100 (s^−1) for the Asn and Gln pentapeptides as a function of carboxyl-side residue as computed from the experimental data are listed in Table 1. The first columns are (100)(ln(k)) and are directly proportional to the Arrhenius activation energy. The second columns are normalized to Gly. This leaves only the side-chain effects and also defines the effect of the Gly hydrogen side-chain or a similar atom with mostly steric effects in this β-position as zero.
This model for Asn deamidation is also applicable to Gln deamidation, although Gln deamidation rates have not been as well characterized. While there may be important differences in the functional group effects for the longer Gln chain, the steric effects are similar as illustrated in FIG. 6. […] The fundamental difference between Asn and Gln rates has been removed by subtracting the Gln values from GlyXxxGlnGlyGly and the Asn values from GlyXxxAsnGlyGly.

[2] = Deamidation of insulin at Asn(B3)
Method: As an example, consider the sequence Phe-ValAsn(B3)GlnHis of insulin. This peptide deamidates at Asn(B3) with a half-time of 136 days at 37° C., pH 7.4 sodium acetate, 0.1% methyl paraben, 0.7% NaCl.

[3] = Deamidation of Asn pentapeptides GlyXxxAsnYyyGly (medians over Xxx)
Description: as §1, §2
For most Asn peptides the computed result should be within 10% or less of the experimental value in 37° C., pH 7.4, 0.15 M Tris-HCl buffer or similar conditions. Gln rates are more affected by hydrolysis and cannot be verified to as high an accuracy with the current data. For Gln peptides and long lived Asn peptides, correction for hydrolysis should be made. With a hydrolysis value of 8010 days: t1/2total=1/(1/8010+1/t1/2calculated)

GlyXxxGlnGlyGly
difference between GlyXxxGlnGlyGly and GlyXxxAsnGlyGly, (100)ln(k) scale [1]: 644.8

insulin
deamidation half-time at Asn(B3) ([2]; 37° C., pH 7.4 sodium acetate, 0.1% methyl paraben, 0.7% NaCl): 136 days
(100)ln(k) subtracted from the AsnGly value ([2]; converted from the 136 day half-time): 478.3

GlyXxxAsnThrGly
experimental deamidation half-time ([3]; 37° C., pH 7.4, 0.15 M Tris-HCl buffer): 46.2 days

GlyXxxAsnGlyGly
deamidation rate (50% chance of deamidating) [3]: about 1 day
